As a reminder, the microsomal CLint is the rate of metabolic loss divided by the concentration. Usually pIC50 stands for −log10 of the IC50, conventionally taken in molar units. Higher therefore signals a small IC50.

pIC50: −log10 of the molar value.

For 14 molecules, microsomal CLint and IC50 results are on record in patent US20260034138A1, “NOVEL PYRIMIDINYL AND TRIAZINYL SULFONAMIDE DERIVATIVES” (Hoffmann-La Roche Inc., priority 2022, published 2026).

Chain of human GPR17 short isoform (Q13304 29-367): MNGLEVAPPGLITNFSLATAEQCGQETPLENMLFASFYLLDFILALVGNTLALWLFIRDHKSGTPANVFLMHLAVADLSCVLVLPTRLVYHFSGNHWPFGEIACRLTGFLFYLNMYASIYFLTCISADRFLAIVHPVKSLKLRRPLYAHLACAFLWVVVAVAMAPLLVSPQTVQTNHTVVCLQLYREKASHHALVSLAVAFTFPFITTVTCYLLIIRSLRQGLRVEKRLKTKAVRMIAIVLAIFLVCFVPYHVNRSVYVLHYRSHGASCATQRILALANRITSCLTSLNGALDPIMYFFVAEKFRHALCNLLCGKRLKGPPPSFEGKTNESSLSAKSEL

System in one data set: not listed separately
Briefly: Microsome Clearance Assay. Format: in vitro ADME. Conditions: human microsomes 0.5 mg/mL plus NADPH, 37° C., test compound 1 microM final. As to the method: Microsome Clearance Assay Protocol:
Incubations at a test compound of 1 mM in microsomes (0.5 mg/mL) plus cofactor NADPH are performed in 96 well plates at 37° C. on a TECAN (Tecan Group Ltd, Switzerland) automated liquid handling system. The final concentration of the test compound in the incubation is 1 microM. After a 10 minutes preincubation step of the test compound with the microsomes, the enzymatic reaction is started by the addition of cofactors. At 1, 3, 6, 9, 15, 25, 35 and 45 minutes, aliquots of the incubations are removed and quenched with 1:3 (v/v) acetonitrile containing internal standards. Samples are then cooled and centrifuged before analysis of the supernatant by LC-MS/MS.
Reference compounds were tested against exemplified compounds for their Microsome Clearance to evaluate metabolite stability.
Take `COc1nc(OCC(F)F)ncc1NS(=O)(=O)c1c[nH]c2nc(Cl)ccc12` [Example 4, 6-chloro-N-[2-(2,2-difluoroethoxy)-4-methoxy-pyrimidin-5-yl]-1H-pyrrolo[2,3-b]pyridine-3-sulfonamide]: the microsomal CLint at 1 microM was 10 µL/min/mg.

Turning to `COc1nc(OCC(F)F)c(F)cc1NS(=O)(=O)c1c[nH]c2nc(Cl)ccc12` [RE-A, 6-chloro-N-[6-(2,2-difluoroethoxy)-5-fluoro-2-methoxy-3-pyridyl]-1H-pyrrolo[2,3-b]pyridine-3-sulfonamide, reference compound], the intrinsic metabolic clearance (microsomal CLint) at 1 microM was 41 µL/min/mg. Take `COc1nc(NS(=O)(=O)c2c[nH]c3cc(Cl)ccc23)nnc1CC(F)F` [Example 12, 6-chloro-N-[6-(2,2-difluoroethyl)-5-methoxy-1,2,4-triazin-3-yl]-1H-indole-3-sulfonamide]: the intrinsic clearance (microsomal CLint) at 1 microM was found to be 10 µL/min/mg.

For another data set, the target named is human GPR17 short isoform (Homo sapiens, UniProt Q13304). The data set is described as follows: GPR17 cAMP assay (hGPR17 cAMP). Format: cell-based. The note with it: CHO-K1 cells stably expressing human GPR17 short isoform; antagonist mode vs EC80 of MDL29,951; forskolin 15 μM; TR-FRET cAMP. The method, then:
GPR17 cAMP Assay Protocol:
CHO-K1 cells stably expressing vector containing untagged human GPR17 short isoform (Roche) were cultured at 37° C./5% CO2 in DMEM (Dulbecco's Modified Eagle Medium): F-12 (1:1) supplemented with 10% foetal bovine serum and 400 μg/ml Geneticin.
Changes in intracellular cyclic adenosine monophosphate (cAMP) levels were quantified using the Nano-TRF Detection Assay kit (Roche Diagnostics, Cat. No. 05214386001). This assay allows for direct cAMP quantification in a homogeneous solution. cAMP is detected based on time-resolved fluorescence energy transfer (TR-FRET) and competitive binding of ruthenylated cAMP and endogenous cAMP to an anti-cAMP monoclonal antibody labeled with AlexaFluor-700. The Ruthenium complex serves as the FRET donor and transfers energy to AlexaFluor-700. The FRET signal is inversely proportional to the CAMP concentration.
CHO-GPR17S cells were detached with Accutase and resuspended in assay buffer consisting of Hank's Balanced Salt Solution (HBSS), 10 mM HEPES (4-(2-hydroxyethyl) piperazine-1-ethanesulfonic acid solution) and 0.1% bovine serum albumin (pH 7.4). The cells were seeded in black 384-well plates (Corning) at a density of 10'000 cells/20 μl assay buffer until the addition of compounds.
Test antagonist compounds were serially diluted in dimethyl sulfoxide (DMSO) and spotted in 384-well plates. The compounds were then diluted in HBSS buffer supplemented with an EC80 concentration of MDL29,951 (3-(2-Carboxy-4,6-dichloroindol-3-yl) propionic acid) (GPR17 agonist) plus 3-Isobutyl-1-methylxanthine (IBMX) (0.5 mM final concentration) and added to the cells at room temperature. Forskolin (15 μM final concentration) was added 5 minutes after the test compounds and the cells were incubated at room temperature for 30 minutes. The assay was stopped by adding cAMP detection mix (containing detergents for cell lysis) for 90 minutes at room temperature.
Cellular cAMP was measured using a Paradigm reader (Molecular Devices). The raw data was used to calculate the FRET signal based on the assay's P-factor as per cAMP kit instructions. The data was normalized to the maximal activity of a reference antagonist and dose response curves were fitted to the percent activity of the test compounds using a sigmoidal dose response model (Genedata Screener).
Results in the hGPR17 cAMP assay are provided for compounds of formula I in Table 1
Background: cAMP levels reflect the balance of adenylyl cyclase and phosphodiesterase activity.
In the case of `O=S(=O)(Nc1cnc(Cl)nc1Cl)c1c[nH]c2cc(Cl)ccc12` [Example 6, 6-chloro-N-(2,4-dichloropyrimidin-5-yl)-1H-indole-3-sulfonamide], the negative-log IC50 (pIC50) was 5.92. On the same count and under the same terms, next, `COc1nc(OCC(F)F)ncc1NS(=O)(=O)c1c[nH]c2nc(Cl)ccc12` [Example 4, 6-chloro-N-[2-(2,2-difluoroethoxy)-4-methoxy-pyrimidin-5-yl]-1H-pyrrolo[2,3-b]pyridine-3-sulfonamide]: 6.34. For `COc1nc(OCCF)ncc1NS(=O)(=O)c1c[nH]c2cc(Cl)ccc12` [Example 7, 6-chloro-N-(2-(2-fluoroethoxy)-4-methoxypyrimidin-5-yl)-1H-indole-3-sulfonamide], the pIC50 was 6.14. Same read-out and setting: under `COc1nc(NS(=O)(=O)c2c[nH]c3cc(Cl)ccc23)nnc1C` [Example 13, 6-chloro-N-(5-methoxy-6-methyl-1,2,4-triazin-3-yl)-1H-indole-3-sulfonamide] stands 5.28; under `COc1nc(OC(F)F)ncc1NS(=O)(=O)c1c[nH]c2cc(Cl)ccc12` [Example 3, 6-chloro-N-[2-(difluoromethoxy)-4-methoxy-pyrimidin-5-yl]-1H-indole-3-sulfonamide], 6.80; under `CCc1ncc(NS(=O)(=O)c2c[nH]c3cc(Cl)ccc23)c(OC)n1` [Example 2, 6-chloro-N-(2-ethyl-4-methoxy-pyrimidin-5-yl)-1H-indole-3-sulfonamide], 6.20. The same measure, in the same setting: next, `COc1nc(OCC(F)F)ncc1NS(=O)(=O)c1c[nH]c2cc(C(F)(F)F)ccc12` [Example 11, N-[2-(2,2-difluoroethoxy)-4-methoxy-pyrimidin-5-yl]-6-(trifluoromethyl)-1H-indole-3-sulfonamide]: 6.46; `O=S(=O)(Nc1cnc(OCC(F)F)nc1OC(F)F)c1c[nH]c2cc(Cl)ccc12` [Example 5, 6-chloro-N-[2-(2,2-difluoroethoxy)-4-(difluoromethoxy)pyrimidin-5-yl]-1H-indole-3-sulfonamide]: 6.76; `COc1nc(OCC(F)F)ncc1NS(=O)(=O)c1c[nH]c2cc(Br)ccc12` [Example 9, 6-bromo-N-[2-(2,2-difluoroethoxy)-4-methoxy-pyrimidin-5-yl]-1H-indole-3-sulfonamide]: 7.28. Take `COc1nc(OCC(F)F)ncc1NS(=O)(=O)c1c[nH]c2nc(Br)ccc12` [Example 10, 6-bromo-N-[2-(2,2-difluoroethoxy)-4-methoxy-pyrimidin-5-yl]-1H-pyrrolo[2,3-b]pyridine-3-sulfonamide]: the pIC50 was 6.78.

`COc1nc(NS(=O)(=O)c2c[nH]c3cc(Cl)ccc23)nnc1CC(F)F` [Example 12, 6-chloro-N-[6-(2,2-difluoroethyl)-5-methoxy-1,2,4-triazin-3-yl]-1H-indole-3-sulfonamide]: the pIC50 is 6.04. Still for that read-out and setting: under `CCCc1ncc(NS(=O)(=O)c2c[nH]c3cc(Cl)ccc23)c(OC)n1` [Example 1, 6-chloro-N-(4-methoxy-2-propyl-pyrimidin-5-yl)-1H-indole-3-sulfonamide] stands 6.11; under `COc1nc(OCC(F)F)ncc1NS(=O)(=O)c1c[nH]c2cc(Cl)ccc12` [Example 8, 6-chloro-N-(2-(2,2-difluoroethoxy)-4-methoxypyrimidin-5-yl)-1H-indole-3-sulfonamide], 6.92.
